{"source": "patent US20020137929A1", "about": "“1 - (3-heterocyclylphenyl) isothiourea, -isourea, -guanidine and -amidine herbicidal agents” (Intellectual Property Department, BASF Aktiengesellschaft, priority 1998, published 2002)", "key": {"ABUTH (Velvetleaf)": {"system": "ABUTH (Velvetleaf)", "assay": "Postemergence herbicidal evaluation", "type": "in vivo, Abutilon theophrasti", "procedure,_shortened": "(§1)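 Scores (0–9) reflect plant stand, vigor, malformation, size, chlorosis and general appearance relative to control, read 4 to 5 weeks after treatment and averaged where tests were repeated. Application: about 0.0156–0.500 kg/ha sprayed at 40 psi onto two-week seedlings.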"}, "[1]": {"system": "CHEAL (Lambsquarters, Common)", "assay": "Postemergence herbicidal evaluation", "type": "in vivo, Chenopodium album", "procedure,_shortened": "as §1"}, "SETVI (Foxtail, Green) [2]": {"system": "SETVI (Foxtail, Green)", "assay": "Postemergence herbicidal evaluation", "type": "in vivo, Setaria viridis", "procedure,_shortened": "as §1"}, "[3]": {"system": "GLXMAW (Soybean, Williams)", "assay": "Postemergence herbicidal evaluation", "type": "in vivo, Glycine max, (L.) Merr. cv Williams", "procedure,_shortened": "as §1"}, "ORYSAT (Rice, Tebonnet)": {"system": "ORYSAT (Rice, Tebonnet)", "assay": "Postemergence herbicidal evaluation", "type": "in vivo, Oryza sativa, (L.) Tebonnet", "procedure,_shortened": "as §1"}, "[4]": {"system": "TRZAWR (Wheat, Winter, cv Riband)", "assay": "Postemergence herbicidal evaluation", "type": "in vivo, Triticum aestivum", "procedure,_shortened": "as §1"}, "ZEAMX (Corn, Field)": {"system": "ZEAMX (Corn, Field)", "assay": "Postemergence herbicidal evaluation", "type": "in vivo, Zea mays", "procedure,_shortened": "as §1"}, "AMBEL (Ragweed, Common)": {"system": "AMBEL (Ragweed, Common)", "assay": "Preemergence herbicidal evaluation", "type": "in vivo, Ambrosia artemisifolia", "settings": "rated 4-5 weeks after treatment", "procedure,_shortened": "(§2)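 Scores use a 0–9 visual scale covering stand, vigor, malformation, size and chlorosis relative to controls, rated four to five weeks after treatment. Before emergence, soil-planted seeds were sprayed with compound in aqueous acetone at roughly 0.0156–0.500 kg/ha and held in the greenhouse.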"}, "GALAP (Galium)": {"system": "GALAP (Galium)", "assay": "Preemergence herbicidal evaluation", "type": "in vivo, Galium aparine", "settings": "rated 4-5 weeks after treatment", "procedure,_shortened": "as §2"}, "SETVI (Foxtail, Green) [5]": {"system": "SETVI (Foxtail, Green)", "assay": "Preemergence herbicidal evaluation", "type": "in vivo, Setaria viridis", "settings": "rated 4-5 weeks after treatment", "procedure,_shortened": "as §2"}, "CYPIR (Rice Flatsedge)": {"system": "CYPIR (Rice Flatsedge)", "assay": "Preemergence weed control under flooded paddy conditions", "type": "in vivo, Cyperus iria", "settings": "rated 3-4 weeks after treatment", "procedure,_shortened": "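Ratings on a 0-9 visual scale cover stand, vigor, malformation, size, chlorosis and overall appearance relative to a control, taken three to four weeks post-treatment. Application was into flood water over freshly sown silt loam at roughly 0.0313 to 0.500 kg/ha.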"}, "[6]": {"system": "ECHORC (Watergrass (Calif.))", "assay": "Postemergence weed control under flooded paddy conditions", "type": "in vivo, Echinochloa oryzoides", "settings": "postemergence weeds, rated 3 to 4 weeks after treatment", "procedure,_shortened": "(§3)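 Flood-water application, about 0.0313–0.500 kg/ha a.i. in aqueous/acetone 50/50 v/v; water depth 1.5–3 cm throughout. Weeds 3–5 cm, rice 1.5–2.5 leaf. Greenhouse; 0–9 visual rating vs control at 3–4 wk.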"}, "CYPSE (Flatsedge)": {"system": "CYPSE (Flatsedge)", "assay": "Postemergence weed control under flooded paddy conditions", "type": "in vivo, Cyperus serotinus", "settings": "postemergence weeds, rated 3 to 4 weeks after treatment", "procedure,_shortened": "as §3"}, "[7]": {"system": "SAGPY (Arrowhead (Pygmaea))", "assay": "Postemergence weed control under flooded paddy conditions", "type": "in vivo, Sagittaria pygmaea", "settings": "postemergence weeds, rated 3 to 4 weeks after treatment", "procedure,_shortened": "as §3"}}}
{"smiles": "C=CCN1C(=O)C(CC(=O)OC)SC1=Nc1cc(-n2c(=O)cc(C(F)(F)F)n(C)c2=O)c(F)cc1Cl", "note": "(stereo not drawn) [Compound 64, Methyl 3-allyl-2-{{2-chloro-5-[3,6-dihydro-3-methyl-2,6-dioxo-4-(trifluoromethyl)-1(2H)-pyrimidinyl]-4-fluorophenyl}imino}-4-oxo-5-thiazolidineacetate]", "values": [{"measurement": "Postemergence herbicidal rating ABUTH", "setting": "ABUTH (Velvetleaf); Rate 0.0158 kg/ha", "result": 9.0}, {"measurement": "Postemergence herbicidal rating ABUTH", "setting": "ABUTH (Velvetleaf); Rate 0.0315 kg/ha", "result": 9.0}, {"measurement": "Postemergence herbicidal rating ABUTH", "setting": "ABUTH (Velvetleaf); Rate 0.0630 kg/ha", "result": 9.0}, {"measurement": "Postemergence herbicidal rating CHEAL", "setting": "[1]; Rate 0.0158 kg/ha", "result": 9.0}, {"measurement": "Postemergence herbicidal rating CHEAL", "setting": "[1]; Rate 0.0315 kg/ha", "result": 9.0}, {"measurement": "Postemergence herbicidal rating CHEAL", "setting": "[1]; Rate 0.0630 kg/ha", "result": 9.0}, {"measurement": "Postemergence herbicidal rating SETVI", "setting": "SETVI (Foxtail, Green) [2]; Rate 0.0158 kg/ha", "result": 6.0}, {"measurement": "Postemergence herbicidal rating SETVI", "setting": "SETVI (Foxtail, Green) [2]; Rate 0.0315 kg/ha", "result": 7.0}, {"measurement": "Postemergence herbicidal rating SETVI", "setting": "SETVI (Foxtail, Green) [2]; Rate 0.0630 kg/ha", "result": 9.0}, {"measurement": "Postemergence herbicidal rating GLXMAW", "setting": "[3]; Rate 0.0158 kg/ha", "result": 7.0}, {"measurement": "Postemergence herbicidal rating GLXMAW", "setting": "[3]; Rate 0.0315 kg/ha", "result": 7.5}, {"measurement": "Postemergence herbicidal rating GLXMAW", "setting": "[3]; Rate 0.0630 kg/ha", "result": 7.5}, {"measurement": "Postemergence herbicidal rating ORYSAT", "setting": "ORYSAT (Rice, Tebonnet); Rate 0.0158 kg/ha", "result": 6.0}, {"measurement": "Postemergence herbicidal rating ORYSAT", "setting": "ORYSAT (Rice, Tebonnet); Rate 0.0315 kg/ha", "result": 6.0}, {"measurement": "Postemergence herbicidal rating ORYSAT", "setting": "ORYSAT (Rice, Tebonnet); Rate 0.0630 kg/ha", "result": 6.0}, {"measurement": "Postemergence herbicidal rating TRZAWR", "setting": "[4]; Rate 0.0158 kg/ha", "result": 6.0}, {"measurement": "Postemergence herbicidal rating TRZAWR", "setting": "[4]; Rate 0.0315 kg/ha", "result": 6.0}, {"measurement": "Postemergence herbicidal rating TRZAWR", "setting": "[4]; Rate 0.0630 kg/ha", "result": 7.0}, {"measurement": "Postemergence herbicidal rating ZEAMX", "setting": "ZEAMX (Corn, Field); Rate 0.0158 kg/ha", "result": 7.0}, {"measurement": "Postemergence herbicidal rating ZEAMX", "setting": "ZEAMX (Corn, Field); Rate 0.0315 kg/ha", "result": 8.0}, {"measurement": "Postemergence herbicidal rating ZEAMX", "setting": "ZEAMX (Corn, Field); Rate 0.0630 kg/ha", "result": 8.0}, {"measurement": "Preemergence herbicidal rating AMBEL", "setting": "AMBEL (Ragweed, Common); rate 0.0156 kg/ha", "result": 2.0}, {"measurement": "Preemergence herbicidal rating AMBEL", "setting": "AMBEL (Ragweed, Common); rate 0.0313 kg/ha", "result": 6.0}, {"measurement": "Preemergence herbicidal rating AMBEL", "setting": "AMBEL (Ragweed, Common); rate 0.0625 kg/ha", "result": 7.0}, {"measurement": "Preemergence herbicidal rating AMBEL", "setting": "AMBEL (Ragweed, Common); rate 0.1250 kg/ha", "result": 9.0}, {"measurement": "Preemergence herbicidal rating AMBEL", "setting": "AMBEL (Ragweed, Common); rate 0.2500 kg/ha", "result": 9.0}, {"measurement": "Preemergence herbicidal rating GALAP", "setting": "GALAP (Galium); rate 0.0156 kg/ha", "result": 0.0}, {"measurement": "Preemergence herbicidal rating GALAP", "setting": "GALAP (Galium); rate 0.0313 kg/ha", "result": 0.0}, {"measurement": "Preemergence herbicidal rating GALAP", "setting": "GALAP (Galium); rate 0.0625 kg/ha", "result": 1.0}, {"measurement": "Preemergence herbicidal rating GALAP", "setting": "GALAP (Galium); rate 0.2500 kg/ha", "result": 7.0}, {"measurement": "Preemergence herbicidal rating SETVI", "setting": "SETVI (Foxtail, Green) [5]; rate 0.0156 kg/ha", "result": 0.0}, {"measurement": "Preemergence herbicidal rating SETVI", "setting": "SETVI (Foxtail, Green) [5]; rate 0.0313 kg/ha", "result": 0.0}, {"measurement": "Preemergence herbicidal rating SETVI", "setting": "SETVI (Foxtail, Green) [5]; rate 0.0625 kg/ha", "result": 9.0}, {"measurement": "Preemergence herbicidal rating SETVI", "setting": "SETVI (Foxtail, Green) [5]; rate 0.1250 kg/ha", "result": 7.0}, {"measurement": "Preemergence herbicidal rating SETVI", "setting": "SETVI (Foxtail, Green) [5]; rate 0.2500 kg/ha", "result": 9.0}, {"measurement": "CYPIR herbicidal effect rating", "setting": "CYPIR (Rice Flatsedge); 0.0313 kg/ha", "result": 0.0}, {"measurement": "CYPIR herbicidal effect rating", "setting": "CYPIR (Rice Flatsedge); 0.0625 kg/ha", "result": 2.0}, {"measurement": "CYPIR herbicidal effect rating", "setting": "CYPIR (Rice Flatsedge); 0.1250 kg/ha", "result": 2.0}, {"measurement": "CYPIR herbicidal effect rating", "setting": "CYPIR (Rice Flatsedge); 0.2500 kg/ha", "result": 7.0}, {"measurement": "Herbicidal rating ECHORC", "setting": "[6]; Rate 0.0313 kg/ha", "result": 5.0}, {"measurement": "Herbicidal rating ECHORC", "setting": "[6]; Rate 0.0625 kg/ha", "result": 6.0}, {"measurement": "Herbicidal rating ECHORC", "setting": "[6]; Rate 0.1250 kg/ha", "result": 6.0}, {"measurement": "Herbicidal rating ECHORC", "setting": "[6]; Rate 0.2500 kg/ha", "result": 9.0}, {"measurement": "Herbicidal rating CYPSE", "setting": "CYPSE (Flatsedge); Rate 0.0313 kg/ha", "result": 0.0}, {"measurement": "Herbicidal rating CYPSE", "setting": "CYPSE (Flatsedge); Rate 0.0625 kg/ha", "result": 0.0}, {"measurement": "Herbicidal rating CYPSE", "setting": "CYPSE (Flatsedge); Rate 0.1250 kg/ha", "result": 0.0}, {"measurement": "Herbicidal rating CYPSE", "setting": "CYPSE (Flatsedge); Rate 0.2500 kg/ha", "result": 0.0}, {"measurement": "Herbicidal rating SAGPY", "setting": "[7]; Rate 0.0313 kg/ha", "result": 0.0}, {"measurement": "Herbicidal rating SAGPY", "setting": "[7]; Rate 0.0625 kg/ha", "result": 3.0}, {"measurement": "Herbicidal rating SAGPY", "setting": "[7]; Rate 0.1250 kg/ha", "result": 5.0}, {"measurement": "Herbicidal rating SAGPY", "setting": "[7]; Rate 0.2500 kg/ha", "result": 8.0}]}
